Experimental data taken from patent US20220153746A1, “NITROGEN OXIDE-DONATING PDE-5 AND/OR PDE-6 INHIBITOR COMPOUNDS, AND USES THEREOF” (ILDONG PHARMACEUTICAL CO., LTD., priority 2020, published 2022).

How the values were obtained:
Type in all cases: in vitro ADME
[1] = Plasma protein binding assay (equilibrium dialysis); conditions: human plasma, dialysis 4 hours at 37° C.
Description: (§1) The dialysis device used in this example is a 96-well equilibrium dialysis plate (Cat #1006, HT Dialysis LLC, Gales Gerry, CT), and HTD 96 a/b dialysis membrane strips (Cat #1101, MWCO 12-14 kDa, HT Dialysis LLC). The dialysis device was assembled following the manufacturer's instructions.
(§2) The dialysis membrane strips were soaked in ultra-pure water at room temperature for approximately 1 hour. Each membrane strip containing 2 membranes was separated and soaked in 20:80 ethanol/water (v/v) for approximately 20 minutes, after which they were ready for used or were stored in the solution at 2-8° C. for up to a month. Prior to experiment, the membrane was rinsed and soaked for 20 minutes in ultra-pure water.
(§3) On the day of the experiment, the plasma was thawed by running under col tap water and centrifuged at 3220 rpm for 5 minutes to remove any clos. The pH value of the resulting plasma was checked. Only plasma with pH value with 7.0-8.0 could be used.
(§4) Both test and control compounds were dissolved in DMSO to achieve 10 mM stock solutions. Working solutions (400 μM) if test and control compounds were prepared by diluting 10μ of stock solutions with 240 μL of DMSO. Loading matrix solutions (2 μM) of both test and control compounds were prepared by diluting 5 μL of working solutions with 995 μL of blank matrix.
(§5) To prepare the loading matrix containing the test compound or control compounds, aliquots of either test compound working solutions or control compound working solution were spiked into blank matrix to achieve final test concentrations. The concentration of organic solvent in the final solutions were no more than 1% (normally 0.5%). The samples were mixture thoroughly before being used.
(§6) To prepare the time zero (T0) samples to be used for recovery determinations. 50 μL aliquots of loading matrix solution were transferred in triplicate to the sample collection plate. The samples were immediately matched with opposite blank buffer to obtain a final volume of 100 μL of 1:1 matrix/dialysis buffer (v/v) in each well. 500 μL of stop solution were added to these T0 samples. They were then stored at 2-8° C. pending further processes along with other post-dialysis samples.
(§7) To load the dialysis device, an aliquot of 150 μL of the loading matrix was transferred to the donor side of each dialysis well in triplicate, and 150 μL of the dialysis buffer was loaded to the received side of the well. The dialysis was placed in humidified incubator at 37° C. with 5% CO2 on a shaking platform that rated slowly (about 100 rpm) for 4 hours.
(§8) At the end of the dialysis, aliquots of 50 μL of samples were taken from both the buffer side and the matrix side of the dialysis deice. These samples were transferred into new 96-well plates (the sample collection plates). Each sample was mixed with an equal volume of opposite blank matrix (buffer or matrix) to reach a final volume of 100 μL of 1:1 matrix/dialysis buffer (v/v) in each well. All samples were further processed by adding 500 μL of stop solution containing internal standards. The mixture was vortexed and centrifuged at 4000 rpm for about 20 minutes. An aliquot of 100 μL of supernatant of all the samples were then removed for LC-MS/MS analysis.
(§9) The single blank samples were prepared by transferring 50 μL of blank matrix to a 96 well plate and adding 50 μL of blank PBS buffer to each well. The blank plasma must match the species of plasma used in the plasma side of the well. Then the matrix-matched samples were further processed by adding 500 μL of stop solution containing internal standards, following the same sample processing method as the dialysis samples.

human plasma proteins = experiment: as above; conditions: 2 μM, dialysis 4 hours at 37° C.
Description: as §1, §2, §3, §4, §5, §6, §7, §8, §9

[2] = Metabolic stability in human liver microsomes; conditions: 37° C., 0-60 minutes
Description: This example illustrates the metabolic stability of selected compounds in human liver microsomes samples.
Both test and control compound solutions were prepared by diluting 5 μL of the respective stock solutions (10 mM in DMSO) containing either the test or control compound with 495 μL of acetonitrile (ACN) to give intermediate solutions with concentrations of 100 μM (99% ACN).
β-Nicotinamide adenine dinucleotide phosphate tetrasodium salt (NADPH.4Na) was purchased from BONTAC (cat. No. BT04). The NADPH working solution (10 unit/mL) was prepared by combining the appropriate amount of NADPH powder and a MgCl2 solution (10 mM) to give final concentration in the reaction system of 1 unit/mL.
The appropriate concentrations of the microsome working solutions were prepared in 100 mM potassium phosphate buffer.
Cold (4° C.) acetonitrile solution containing 200 ng/mL tolbutamide and 200 ng/mL labetalol (internal standard) was used as the stop solution.
Liver microsomes solution was diluted to 0.56 mg/mL in 100 mM phosphate buffer, and 445 μL of this solution was transferred into pre-warmed (10 minutes) “incubation” plates T60 and NCF60; the “incubation” plates T60 and NCF60 were pre-warmed for 10 minutes at 37° C. with constant shaking.
54 μL of the liver microsome solutions was transferred to the blank plate, followed by addition of 6 μL of the NAPDH cofactor solution and 180 μL of the quenching solution to the same blank plate.
5 μL of the compound working solution (100 μM concentration) was next added to into the “incubation” plates (T60 and NCF60) containing microsomes and mixed 3 times thoroughly. For the NCF60 plate, 50 μL of the buffer solution was added, mixed 3 times thoroughly, and incubated at 37° C. for 60 minutes under constant shaking.
In the “Quenching” plate at T0 (T=0 min), 180 μL of quenching solution and 6 μL of the NAPDH cofactor solution were added, and the resulting plate was chilled to prevent evaporation.
In the T60 plate, after it was thoroughly mixed, 54 μL of the mixture was immediately transferred to the “quenching” plate for the 0-minute time point, followed by addition of 44 μL of NAPDH cofactor solution to the incubation plate (T60). The resulting mixture was then incubated at 37° C. for 60 minutes under constant shaking. At time points of 5, 10, 20, 30 and 60 minutes, 180 μL of the quenching solution was added to the “quenching” plates, followed by serial transfer of 60 μL of the mixture (per time point) from the T60 plate to the “Quenching” plates.
For the NCF60 plates, 60 μL of the sample solution was transferred from the NCF60 incubation plate to the “Quenching” plate containing quenching solution at T=60 min time point. […]

Structure (SMILES) | fraction unbound at 4 h, 2 µM [1] | % Bound (human plasma proteins) | CLint scaled at 1 µM [2]
CCCc1nn(C)c2c(=O)[nH]c(-c3cc(S(=O)(=O)N4CC(CCCO[N+](=O)[O-])C4)ccc3OCC)nc12 [Compound 18, 3-(1-((4-ethoxy-3-(1-methyl-7-oxo-3-propyl-6,7-dihydro-1H-pyrazolo[4,3-d]pyrimidin-5-yl)phenyl)sulfonyl)azetidin-3-yl)propyl nitrate] | 0.0048 | 99.52% | 934 mL/min/kg
CCCc1nn(C)c2c(=O)[nH]c(-c3cc(S(=O)(=O)N4CC(CCCO)C4)ccc3OCC)nc12 [Compound 4, 5-(2-ethoxy-5-((3-(3-hydroxypropyl)azetidin-1-yl)sulfonyl)phenyl)-1-methyl-3-propyl-1,6-dihydro-7H-pyrazolo[4,3-d]pyrimidin-7-one] | 0.0399 | 96.01% | 357 mL/min/kg
